Patent US20190353647A1, “NOVEL REAL-TIME MULTIPLEXED, MULTI-COLOR BIOLUMINESCENCE RESONANCE ENERGY TRANSFER ASSAY, APPARATUS, AND USES THEREOF” (Universite de Bordeaux, priority 2016, published 2019)

Target: T1, TRPV3 (Homo sapiens, UniProt Q8NET8)
T1 sequence (Q8NET8 1-790): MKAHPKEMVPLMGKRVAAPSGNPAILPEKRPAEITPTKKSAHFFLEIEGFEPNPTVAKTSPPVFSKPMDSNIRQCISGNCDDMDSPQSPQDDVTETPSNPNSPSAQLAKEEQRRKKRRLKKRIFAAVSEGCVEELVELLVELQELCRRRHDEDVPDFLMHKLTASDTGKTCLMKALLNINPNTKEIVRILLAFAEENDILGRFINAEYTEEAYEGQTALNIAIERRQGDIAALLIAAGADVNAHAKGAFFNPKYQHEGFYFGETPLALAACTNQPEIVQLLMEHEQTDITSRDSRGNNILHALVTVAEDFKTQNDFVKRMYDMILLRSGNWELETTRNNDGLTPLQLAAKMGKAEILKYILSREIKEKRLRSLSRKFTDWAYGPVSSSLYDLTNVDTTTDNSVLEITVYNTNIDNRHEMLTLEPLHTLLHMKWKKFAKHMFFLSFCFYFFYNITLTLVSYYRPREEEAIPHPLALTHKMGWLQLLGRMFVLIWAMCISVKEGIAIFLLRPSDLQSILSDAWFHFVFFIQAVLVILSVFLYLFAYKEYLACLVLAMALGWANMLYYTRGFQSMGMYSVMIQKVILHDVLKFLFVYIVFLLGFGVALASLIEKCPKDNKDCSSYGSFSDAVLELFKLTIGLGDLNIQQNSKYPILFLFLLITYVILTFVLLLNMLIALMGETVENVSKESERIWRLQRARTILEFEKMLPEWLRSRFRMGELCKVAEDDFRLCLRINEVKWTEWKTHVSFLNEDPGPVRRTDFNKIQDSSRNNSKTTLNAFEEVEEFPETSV
Test: Intermolecular BRET assay, Luc-TRPV3/YFP-CaM in HEK293T cells
Assay type: cell-based
Design: expressed in transfected cells; host or cells: HEK293T
Conditions: dose-response; for BRET signal between YFP-CaM and Luc-TRPV3 on challenge: FIG. 1
Source text: In order to generate the BRET constructs, super Yellow Fluorescent Protein 2 and Renilla Luciferase II were used to improve the brightness of the assay. They were referred as YFP and Luc for short in the rest of the manuscript. The cDNA of Luc and YFP were first cloned together using a three-piece ligation in the BamHI/XhoI site of pcDNA3.1(+) (Invitrogen, Carlsbad, Calif., USA), yielding two expression vectors pcDNA3.1 YFP-Luc where YFP was cloned in-fusion at the N-terminal of Luc, and pcDNA3.1 Luc-YFP where Luc was cloned in-fusion at the N-terminal of YFP. Both YFP and Luc were amplified by PCR from the pcDNA3-YFP-EPAC-Luc vector. Luc was cloned either at the N-terminal of YFP as a HindIII-EcoRI fragment (primers used: “Luc_HindIII_ATGN-term sense” and “Luc_no Stop_EcoRI_N-term antisense”) or at the COOH-terminal of YFP as an EcoRI-XhoI fragment (primer used: “Luc_EcoRI_ATG_C-term sense” and “Luc_XhoI_Stop_C-term antisense”). In parallel, YFP was cloned either at the N-terminal of Luc as a HindIII-EcoRI fragment (primers used: “YFP_HindIII_ATG_N-term sense” and “YFP_no Stop_EcoRI_N-term antisense”) or at the COOH-terminal of Luc as a EcoRI-XhoI fragment (primer used: “YFP_EcoRI_ATG_C-term sense” and “YFP_XhoI_Stop_C-term antisense”). The sequence joining Luc and YFP sequence encoded […] (SEQ ID NO: 18) as a linker, and contained an AgeI restriction site. The YFP-hTRPV1-Luc expression vector was obtained by subcloning the human TRPV1 cDNA from the pDONR201-hTRPV1 vector (Harvard Medical School PlasmID Repository, clone HsCD00081472) as an EcoRI PCR fragment in the EcoRI site of the vector pcDNA3.1 YFP-Luc (primer used: “hTRPV1_EcoRI_Fus_Sense” and “hTRPV1_EcoRI_Fus_antisense”). The hTRPV1-Luc expression vector was obtained by subcloning the cDNA of hTRPV1 as a HindIII-EcoRI fragment in place of the YFP in the HindIII-EcoRI site of the pcDNA3.1 YFP-Luc vector (primer used: “hTRPV1_HindIII_ATG_Sense” and “hTRPV1_EcoRI_Fus_antisense”). […]
HEK293T cells were maintained in Dulbecco's modified Eagle's medium-high Glucose (DMEM) (D6429, Sigma) supplemented with 10% fetal bovine serum, 100 units mL-1 penicillin and streptomycin. […] After overnight incubation, transfected cells were then detached, resuspended in DMEM w/o red phenol (Ref 21063-029, ThermoFisher scientific, Waltham, Mass., USA) and replated at a density of 10^5 cells per well in 96-well white plates with clear bottoms (Greiner Bio one, Courtaboeuf, France) pre-treated with D-polylysine (Sigma) for reading with the Tristar2 luminometer (Berthold Technologies, Bad Wildbad, Germany) or onto 12 mm diameter glass coverslips (Knittel Glass, Braunschweig, Germany) treated with poly-L-lysine for the reading with the SpectraPro 2300i spectrometer (Acton Optics, Acton, Mass., USA). […]

SMILES	BRET signal between YFP-CaM and Luc-TRPV3 on challenge	EC50 (FIG. 1, read-out: EC50 of BRET signal increase between YFP-CaM and Luc-TRPV3) [µM]
COc1cc(CNC(=O)CCCC/C=C/C(C)C)ccc1O [CAPS, Capsaicin]	no dose-dependent BRET increase	
CCN(CC)CCOC(=O)C(c1ccccc1)C1CCCCC1 (stereo not shown) [Drofenine]	dose-dependent increase	206
CC(C)C[C@H](NC(=O)c1cc2ccccc2s1)C(=O)N1CCN(C(=O)[C@H](CO)NS(=O)(=O)c2ccc(Cl)cc2Cl)CC1 [GSK1016790A]	no dose-dependent BRET increase	
